Measured values as given in US20050080113A1, “Medicinal compositions” (priority 2001, published 2005).

Experiments:
TNF-α production = assay: Measurement of inhibiting activity of TNF-α production in LPS-stimulated THP-1 cells, ELISA (Reference Example C 2); assay type: cell-based; conditions: Homo sapiens, LPS 5 μg/mL, 4 hours, read-out: IC50 (concentration necessary for inhibiting TNF-α production by 50%)
Description: Measurement of Inhibiting Activity of TNF-α Production
After THP-1 cells which had been cultured on PRMI 1640 medium (manufactured by Life Technologies, Inc.) containing 1% inactivated bovine fetal serum (manufactured by Life Technologies, Inc., U.S.A.) and 10 mM HEPES (pH 7.5) seeded on a 96 well-plate to 1×10^5 cells/well, 1 μL test compound dissolved in DMSO was added. After incubation at 37° C. for 1 hour in a CO2 incubator, LPS (Wako Pure Chemicals) was added to the final concentration 5 μg/mL. After cultured at 37° C. for 4 hours in a CO2 incubator, the supernatant was obtained by centrifugation. The concentration of TNF-α in the supernatant was measured by ELISA (R&D Systems, Quantikine Kit). The concentration (IC50 value) of the test compound necessary for inhibiting TNF-α production by 50% was calculated using PRIMS 2.01 (Graphpad Software).

[1] = Test using rat yeast-induced pain model animal (pain threshold, pressure device), Example 1; assay type: in vivo; conditions: oral, pain threshold 2 hours after administration
Description: Male Sprague-Dawley rats (4 week-old, Clear Japan) were used. A 20% yeast physiological saline solution (0.1 ml) was subcutaneously injected into right hind pedal sole to induce inflammation in the right hind pedal sole. One hour later, 0.5% aqueous methyl cellulose or Reference Example D compound 16 1 suspended in 0.5% aqueous methyl cellulose was orally administered (0.5 ml/100 g body weight). After 2 hours from sample administration, pain threshold value was measured based on false escape reaction using a pressure device. A group contained 6 rats.

[2] = system: osteoclast formation in mouse bone marrow cells; assay: Inhibitory action of osteoclast formation (TRAP positive multinucleated cells, bone marrow cell culture), Example 2; assay type: cell-based; conditions: for Osteoclast count (/well): 6 days, TRAP positive multinucleated cells, average ± standard deviation (N = 4-5)
Description: Bone marrow cells were collected from the tibia of 8-week-old male ddY mouse and suspended in αMEM medium containing 10% FBS and sown in a 24 well plate at a density of 10^6 cells/0.5 ml/well. After static culture overnight, the medium was changed to the above-mentioned medium containing 10^−8 M 1α, 25 (OH)2D3 or Reference Example D compound 16 1 at 0.01, 0.1, 1 or 10 μM, respectively and further cultured for 6 days. After the completion of the culture, the cells were fixed and subjected to staining of tartrateresistant acid phosphatase (TRAP), which is a differentiation index of osteoclast, and TRAP positive multinucleated cells with three or more nuclei were counted as osteoclasts with a microscope.

human p38 MAP kinase = target: T1, human p38 MAP kinase (Homo sapiens, UniProt Q16539); assay: Measurement of the enzyme inhibitory activity of active form p38 MAP kinase, 32P uptake into Myelin Basic Protein (Reference Example C 1); assay type: biochemical; conditions: Myelin Basic Protein substrate, 30° C., 60 minutes, read-out: IC50 (concentration necessary for inhibiting uptake of 32P into an acid insoluble fraction by 50%)
T1 construct: made in house; host or cells: Sf-21 insect cells, baculovirus (BAC-HP38 co-infected with BAC-caMKK3)
T1 sequence (Q16539 whole entry): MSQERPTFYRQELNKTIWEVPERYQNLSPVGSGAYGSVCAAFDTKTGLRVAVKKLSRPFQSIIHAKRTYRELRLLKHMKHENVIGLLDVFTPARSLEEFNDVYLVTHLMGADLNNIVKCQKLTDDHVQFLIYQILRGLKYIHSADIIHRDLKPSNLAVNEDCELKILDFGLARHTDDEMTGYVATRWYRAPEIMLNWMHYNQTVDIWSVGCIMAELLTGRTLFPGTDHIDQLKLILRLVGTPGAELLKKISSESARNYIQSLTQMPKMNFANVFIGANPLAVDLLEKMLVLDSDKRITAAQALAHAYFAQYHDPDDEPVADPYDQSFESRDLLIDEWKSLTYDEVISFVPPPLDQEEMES
Description: The genetic manipulations described below were according to a method described in the book (Maniatis et al., Molecular Cloning, Cold Spring Harbor Laboratory, 1989) or methods described in the protocols attached to the reagents.
(1) Cloning of Human p38 MAP Kinase Gene and Preparation of Recombinant Baculovirus
Cloning of human p38 MAP kinase gene was performed by a PCR method using a primer set P38 U: 5′-[…] 3′ [SEQ ID NO:1] and PAG-L: 5′-[…]-3′ [SEQ ID NO:2] made by the use of kidney cDNA (Toyobo, QUICK-Clone cDNA) as a template and referring to the base sequence of p38 MAP kinase gene reported by Han et al. (Science 265 (5173), 808 811 (1994)).
A PCR reaction was performed by a Hot Start method using AmpliWax PCR Gem 100 (Takara Shuzo). As the lower mixed solution, 2 μL 10×LA PCR Buffer, 3 μL 2.5 mM dNTP solution, each 2.5 μL of 12.5 μM primer solutions, and 10 μL sterile distilled water were mixed. As the upper mixed solution, 1 μL human cardiac cDNA (1 ng/mL) as a template, 3 μL 10×LA PCR Buffer, 1 μL 2.5 mM dNTP solution, 0.5 μL TaKaRa LA Taq DNA polymerase (Takara Shuzo), and 24.5 μL sterile distilled water were mixed. One AmpliWax PCR Gem 100 (Takara Shuzo) was added to the prepared lower mixed solution and the mixture was treated at 70° C. for 5 min and for 5 min in an ice and, thereafter, the upper mixed solution was added to prepare a reaction solution for PCR. […]

For `CNc1nc(-c2ccc(Cl)cc2)c(-c2ccncc2)s1` [13-70, N-methyl [4-(4-chlorophenyl)-5-(4-pyridyl)-1,3-thiazol-2-yl]amine], the melting point was 224 to 225 °C and the IC50 (TNF-α production) was 180 nM.
Compound `CNc1nc(-c2ccc(OC)cc2)c(-c2ccncc2)s1` [13-16, N-methyl [4-(4-methoxyphenyl)-5-(4-pyridyl)-1,3-thiazol-2-yl]amine] has a melting point of 177 to 178 °C and an IC50 (TNF-α production) of 140 nM.
With `CCc1nc(-c2cccc(C)c2)c(-c2ccnc(NC(=O)c3ccccc3)c2)s1` [D 16-1, N-[4-[2-ethyl-4-(3-methylphenyl)-1,3-thiazol-5-yl]-2-pyridyl]benzamide] the antinociceptive effect [1] was “dose-dependent antinociceptive effect”, the “minimum effective dose (antinociceptive effect)” value [1] was 10 mg/kg and the number of osteoclasts ([2]; 0.01, 0.1, 1 or 10 μM) was “decreased in a dose-dependent manner”. For the same compound, the IC50 ([2]; 144 h, mouse bone marrow cells, 1α,25(OH)2D3, 6 days culture, read-out: IC50 value against formation of osteoclast) was 300 nM, the formation of osteoclast ([2]; at 10 μM) was “barely observed” and the “Osteoclast count (/well)” value ([2]; concentration 0.01 μM, mouse bone marrow cells) was 183.8 ± 2.9 /well. The “Osteoclast count (/well)” value ([2]; concentration 0.1 μM, mouse bone marrow cells) was 140.8 ± 7.6 /well, the “Osteoclast count (/well)” value ([2]; concentration 1 μM, mouse bone marrow cells) was 72.4 ± 4.4 /well and the “Osteoclast count (/well)” value ([2]; concentration 10 μM, mouse bone marrow cells) was 0.6 ± 0.4 /well. The “concentration from which the action on osteoclast number was found significantly” value ([2]; mouse bone marrow cells, 0.01-10 μM tested) was 0.1 µM.
`CNc1nc(-c2ccc3c(c2)CCC3)c(-c2cccnc2)s1` [13-74] gave a melting point of 172 to 173 °C and an IC50 (human p38 MAP kinase) of 630 nM.
